Results from publication doi:10.1101/2025.11.20.689572v1 (biorxiv, 2025).
pKi: −log10 of the molar value. Where two headings read alike, the source gives them in different places.

Legend:
[1] = biological target: T1, H1 (Homo sapiens, UniProt P35367); assay: competitive radioligand binding, HEK293 membranes
T1 construct: gene HRH1; full-length receptor; HEK293 cell membranes
Text: competitive radioligand binding, HEK293 membranes on H1

[2] = biological target: T2, 5-HT1B (Homo sapiens, UniProt P28222); assay: competitive radioligand binding, HEK293 membranes
T2 construct: gene HTR1B; full-length receptor; HEK293 cell membranes
Text: competitive radioligand binding, HEK293 membranes on 5-HT1B

[3] = biological target: CHRM3 (Homo sapiens, UniProt P20309); assay: cell-based; set-up: species or system HEK293; TRUPATH BRET2 G-protein dissociation; antagonist mode against agonist EC80; conditions: agonist mode, % of control agonist
[4] = biological target: T3, CHRM4 (Homo sapiens, UniProt P08173); assay: cell-based; set-up: species or system HEK293; TRUPATH BRET2 G-protein dissociation; antagonist mode against agonist EC80; conditions: agonist mode, % of control agonist
T3 sequence (P08173 1-479): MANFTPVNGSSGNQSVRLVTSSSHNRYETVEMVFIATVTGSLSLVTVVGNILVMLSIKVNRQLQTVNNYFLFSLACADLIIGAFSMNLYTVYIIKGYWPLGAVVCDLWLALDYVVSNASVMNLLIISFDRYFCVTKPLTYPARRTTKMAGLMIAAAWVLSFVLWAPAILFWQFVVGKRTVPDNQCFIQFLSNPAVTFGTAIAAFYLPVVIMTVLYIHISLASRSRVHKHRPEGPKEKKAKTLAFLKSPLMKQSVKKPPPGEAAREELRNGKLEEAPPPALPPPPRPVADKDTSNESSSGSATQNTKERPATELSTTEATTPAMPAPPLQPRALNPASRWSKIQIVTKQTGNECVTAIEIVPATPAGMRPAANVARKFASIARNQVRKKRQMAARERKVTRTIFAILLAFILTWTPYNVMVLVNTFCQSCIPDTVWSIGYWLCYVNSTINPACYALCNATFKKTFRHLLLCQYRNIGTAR

[5] = biological target: T4, CHRM5 (Homo sapiens, UniProt P08912); assay: cell-based; set-up: species or system HEK293; TRUPATH BRET2 G-protein dissociation; antagonist mode against agonist EC80; conditions: agonist mode, % of control agonist
T4 sequence (P08912 1-532): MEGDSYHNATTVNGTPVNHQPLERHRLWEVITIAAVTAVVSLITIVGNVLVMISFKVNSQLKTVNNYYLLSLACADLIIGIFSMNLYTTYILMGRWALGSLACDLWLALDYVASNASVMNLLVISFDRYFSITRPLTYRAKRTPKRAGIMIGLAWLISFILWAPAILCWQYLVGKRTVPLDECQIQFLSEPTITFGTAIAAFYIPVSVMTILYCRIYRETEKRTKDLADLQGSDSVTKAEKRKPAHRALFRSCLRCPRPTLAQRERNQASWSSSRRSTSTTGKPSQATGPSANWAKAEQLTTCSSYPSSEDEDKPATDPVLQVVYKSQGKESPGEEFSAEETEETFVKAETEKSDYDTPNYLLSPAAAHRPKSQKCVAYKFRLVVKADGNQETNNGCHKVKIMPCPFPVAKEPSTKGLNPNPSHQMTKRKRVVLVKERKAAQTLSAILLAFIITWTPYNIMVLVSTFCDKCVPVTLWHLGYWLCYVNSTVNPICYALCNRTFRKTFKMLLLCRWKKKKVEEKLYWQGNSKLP

[6] = biological target: HRH4 (Homo sapiens, UniProt Q9H3N8); assay: cell-based; set-up: species or system HEK293; TRUPATH BRET2 G-protein dissociation; antagonist mode against agonist EC80; conditions: agonist mode, % of control agonist
[7] = biological target: T5, 5-HT3 (Homo sapiens, UniProt P46098); assay: biochemical; set-up: species or system HEK293; PDSP competitive radioligand binding, membranes of transfected HEK293 cells, filtration, Ki by Cheng-Prusoff
T5 construct: gene HTR3A
Experimental: (§1) Competitive radioligand binding assays were performed at the NIMH Psychoactive Drug Screening Program (PDSP) using membranes from transiently transfected HEK293 cells in 96-well format as described. Complete, target-specific protocols are available at the PDSP website (https://pdsp.unc.edu/pdspweb/?site=assays). Primary screenings were run at a single test concentration (10 µM) in quadruplicate. […] Secondary assays were conducted in triplicate using 12-point serial dilutions (0, 0.1, 0.3, 1, 3, 10, 30, 100, 300 nM; 1, 3, 10 µM). Assays were performed in a final volume of 125 µL per well in binding buffer, as detailed in the NIMH PDSP protocols (e.g., standard binding buffer: 50 mM Tris-HCl, pH 7.4, 10 mM MgCl2, 0.1 mM EDTA). Radioligand concentrations were chosen near the target-specific Kd. Total and nonspecific binding were defined in the absence and presence, respectively, of 10 µM reference ligand specific for each receptor. After 90 min incubation at room temperature, reactions were terminated by vacuum filtration onto 0.3% polyethyleneimine-pretreated UniFilter-96 GF/C Microplates using a FilterMate harvester, washed three times with ice-cold buffer (50 mM Tris HCl, pH 7.4), dried, treated with MicroScint-O [compound left out] scintillation cocktails, and counted on a MicroBeta counter. Equilibrium inhibition constants (Ki) were calculated from fitted IC50 values using the Cheng–Prusoff equation [14] with the assay-specific radioligand concentration and Kd. TABLE 1. […] Results represented mean ± SEM from a minimum of 3 independent assays, each in triplicate. ND=not determined.

[8] = biological target: T6, D5 (Homo sapiens, UniProt P21918); assay: biochemical; set-up: species or system HEK293; PDSP competitive radioligand binding, membranes of transfected HEK293 cells, filtration, Ki by Cheng-Prusoff
T6 construct: gene DRD5
Experimental: as §1

[9] = biological target: T7, α1B (Homo sapiens, UniProt P35368); assay: biochemical; set-up: species or system HEK293; PDSP competitive radioligand binding, membranes of transfected HEK293 cells, filtration, Ki by Cheng-Prusoff
T7 construct: gene ADRA1B
Experimental: as §1

[10] = HEK293, read-out: N-Desmethyl Xanomeline, Assay=Gq
[11] = HEK293, read-out: N-Desmethyl Xanomeline, Assay=Gi1
[12] = HEK293, read-out: N-Desmethyl Xanomeline, Assay=Gi2
[13] = HEK293, read-out: N-Desmethyl Xanomeline, Assay=Gi3
[14] = HEK293, read-out: N-Desmethyl Xanomeline, Assay=GoA
[15] = read-out: N-desmethyl-xanomeline (PDSP) pKi (converted)
[16] = HEK293, read-out: Xanomeline, Assay=Gq
[17] = HEK293, read-out: Xanomeline, Assay=Gi1
[18] = HEK293, read-out: Xanomeline, Assay=Gi2
[19] = HEK293, read-out: Xanomeline, Assay=Gi3
[20] = HEK293, read-out: Xanomeline, Assay=GoA

Sequence of HRH4 (Q9H3N8 whole entry): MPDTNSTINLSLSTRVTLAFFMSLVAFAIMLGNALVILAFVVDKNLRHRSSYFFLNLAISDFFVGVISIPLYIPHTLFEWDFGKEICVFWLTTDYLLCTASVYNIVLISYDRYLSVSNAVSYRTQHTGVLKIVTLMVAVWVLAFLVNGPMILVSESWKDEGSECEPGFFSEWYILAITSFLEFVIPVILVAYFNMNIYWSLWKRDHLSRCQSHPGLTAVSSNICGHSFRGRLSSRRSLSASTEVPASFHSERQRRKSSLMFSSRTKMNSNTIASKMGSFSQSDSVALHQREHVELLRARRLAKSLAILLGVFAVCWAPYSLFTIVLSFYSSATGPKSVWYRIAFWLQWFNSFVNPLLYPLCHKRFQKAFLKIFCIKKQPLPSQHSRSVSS
T5 sequence (P46098 whole entry): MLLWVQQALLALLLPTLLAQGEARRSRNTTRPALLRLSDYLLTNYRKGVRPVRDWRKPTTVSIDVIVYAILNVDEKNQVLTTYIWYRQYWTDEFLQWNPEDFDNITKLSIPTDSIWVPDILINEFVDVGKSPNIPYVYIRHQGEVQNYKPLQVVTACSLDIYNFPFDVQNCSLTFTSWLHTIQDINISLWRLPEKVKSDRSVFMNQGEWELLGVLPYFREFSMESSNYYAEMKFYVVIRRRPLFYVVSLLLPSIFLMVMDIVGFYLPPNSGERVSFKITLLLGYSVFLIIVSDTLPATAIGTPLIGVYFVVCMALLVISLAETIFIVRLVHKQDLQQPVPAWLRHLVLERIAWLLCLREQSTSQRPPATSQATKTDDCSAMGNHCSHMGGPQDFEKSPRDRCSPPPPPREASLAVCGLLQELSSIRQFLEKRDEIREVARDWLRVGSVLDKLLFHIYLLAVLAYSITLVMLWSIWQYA
T2 sequence (P28222 whole entry): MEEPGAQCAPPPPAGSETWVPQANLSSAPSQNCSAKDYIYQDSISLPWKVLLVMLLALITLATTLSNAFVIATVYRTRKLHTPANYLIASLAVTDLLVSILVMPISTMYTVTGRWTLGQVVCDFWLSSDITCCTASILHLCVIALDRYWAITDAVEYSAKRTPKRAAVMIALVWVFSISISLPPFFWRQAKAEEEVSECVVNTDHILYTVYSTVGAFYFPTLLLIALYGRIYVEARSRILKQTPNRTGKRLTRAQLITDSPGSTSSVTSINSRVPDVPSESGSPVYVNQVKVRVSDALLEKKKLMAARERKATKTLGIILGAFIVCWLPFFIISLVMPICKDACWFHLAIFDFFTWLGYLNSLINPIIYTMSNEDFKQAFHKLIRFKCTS
T1 sequence (P35367 whole entry): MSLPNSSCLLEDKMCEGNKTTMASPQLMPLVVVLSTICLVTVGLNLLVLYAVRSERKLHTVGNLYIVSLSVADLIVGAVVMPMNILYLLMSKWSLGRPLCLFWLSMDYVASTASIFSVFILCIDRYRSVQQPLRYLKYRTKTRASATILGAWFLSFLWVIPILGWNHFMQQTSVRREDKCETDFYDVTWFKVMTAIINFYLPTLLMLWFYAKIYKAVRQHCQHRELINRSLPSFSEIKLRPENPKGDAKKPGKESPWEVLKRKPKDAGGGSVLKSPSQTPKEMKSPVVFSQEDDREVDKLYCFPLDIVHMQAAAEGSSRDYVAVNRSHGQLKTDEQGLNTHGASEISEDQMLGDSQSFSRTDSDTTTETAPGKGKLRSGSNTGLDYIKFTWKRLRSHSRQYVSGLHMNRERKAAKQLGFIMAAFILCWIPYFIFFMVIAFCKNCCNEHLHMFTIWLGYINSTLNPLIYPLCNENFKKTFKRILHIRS
Sequence of CHRM3 (P20309 whole entry): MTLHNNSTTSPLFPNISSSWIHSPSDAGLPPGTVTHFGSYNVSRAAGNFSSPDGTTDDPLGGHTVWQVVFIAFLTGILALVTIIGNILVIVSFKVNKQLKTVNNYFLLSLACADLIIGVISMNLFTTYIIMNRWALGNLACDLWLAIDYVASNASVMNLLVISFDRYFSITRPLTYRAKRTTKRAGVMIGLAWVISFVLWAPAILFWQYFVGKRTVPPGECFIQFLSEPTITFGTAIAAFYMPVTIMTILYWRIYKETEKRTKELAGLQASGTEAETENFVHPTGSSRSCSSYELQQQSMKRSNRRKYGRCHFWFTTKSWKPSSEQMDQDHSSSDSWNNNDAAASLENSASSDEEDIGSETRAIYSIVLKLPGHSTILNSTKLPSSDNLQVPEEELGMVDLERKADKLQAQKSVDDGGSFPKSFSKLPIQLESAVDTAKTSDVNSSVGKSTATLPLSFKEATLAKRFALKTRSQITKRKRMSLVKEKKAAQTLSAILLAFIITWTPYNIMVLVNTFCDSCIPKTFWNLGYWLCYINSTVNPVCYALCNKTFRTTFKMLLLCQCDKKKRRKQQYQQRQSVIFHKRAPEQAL
T6 sequence (P21918 whole entry): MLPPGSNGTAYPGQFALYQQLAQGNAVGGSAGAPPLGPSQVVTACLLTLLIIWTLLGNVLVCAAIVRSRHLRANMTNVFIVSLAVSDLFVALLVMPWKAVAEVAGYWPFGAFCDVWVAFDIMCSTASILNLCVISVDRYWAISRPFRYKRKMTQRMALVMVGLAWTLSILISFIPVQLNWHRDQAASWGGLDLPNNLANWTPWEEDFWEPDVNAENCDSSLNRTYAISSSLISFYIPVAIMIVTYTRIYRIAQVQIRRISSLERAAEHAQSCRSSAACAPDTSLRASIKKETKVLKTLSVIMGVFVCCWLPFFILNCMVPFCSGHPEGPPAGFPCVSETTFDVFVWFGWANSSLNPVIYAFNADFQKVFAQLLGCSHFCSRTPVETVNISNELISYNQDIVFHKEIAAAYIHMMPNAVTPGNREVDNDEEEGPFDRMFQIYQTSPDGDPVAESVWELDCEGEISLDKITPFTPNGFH
T7 sequence (P35368 whole entry): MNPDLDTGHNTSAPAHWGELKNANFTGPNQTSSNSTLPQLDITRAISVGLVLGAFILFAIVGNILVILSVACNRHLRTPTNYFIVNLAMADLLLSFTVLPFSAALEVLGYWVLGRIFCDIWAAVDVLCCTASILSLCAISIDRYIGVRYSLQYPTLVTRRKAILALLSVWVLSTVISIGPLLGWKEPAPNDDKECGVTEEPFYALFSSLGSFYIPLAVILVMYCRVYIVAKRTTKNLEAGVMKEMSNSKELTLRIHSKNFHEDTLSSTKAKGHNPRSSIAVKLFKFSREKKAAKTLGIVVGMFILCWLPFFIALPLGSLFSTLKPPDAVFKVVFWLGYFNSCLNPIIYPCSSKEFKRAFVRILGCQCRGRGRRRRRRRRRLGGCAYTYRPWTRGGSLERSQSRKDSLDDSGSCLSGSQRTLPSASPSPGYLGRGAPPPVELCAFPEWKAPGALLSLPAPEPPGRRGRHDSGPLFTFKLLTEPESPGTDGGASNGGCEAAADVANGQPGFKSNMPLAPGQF

SMILES: CCCCCCOc1nsnc1C1=CCCNC1 [N-desmethylxanomeline]
- pKi [1]: 6.14
- pKi [2]: 6.75
- Emax [3, 10]: 62.4%
- Emax [4, 11]: 94.1%
- Emax [4, 12]: 106%
- Emax [4, 13]: 81.3%
- Emax [4, 14]: 100%
- Emax ([4]; HEK293, read-out: N-Desmethyl Xanomeline, Assay=GoB): 102%
- Emax ([4]; HEK293, read-out: N-Desmethyl Xanomeline, Assay=Gz): 89%
- Emax [5, 10]: 80.4%
- Emax [6, 11]: 79.3%
- Emax [6, 12]: 81%
- Emax [6, 13]: 86.8%
- Emax [6, 14]: 81.7%
- Ki [7, 15]: 2400 nM
- Ki [8, 15]: > 10000 nM
- Ki [9, 15]: 7240 nM

SMILES: CCCCCCOc1nsnc1C1=CCCN(C)C1 [Xanomeline]
- pKi [1]: 7.00
- pKi [2]: 6.14
- Emax [3, 16]: 65.6%
- Emax [4, 17]: 98.4%
- Emax [4, 18]: 110%
- Emax [4, 19]: 86%
- Emax [4, 20]: 107%
- Emax ([4]; HEK293, read-out: Xanomeline, Assay=GoB): 106%
- Emax ([4]; HEK293, read-out: Xanomeline, Assay=Gz): 94.1%
- Emax [5, 16]: 82%
- Emax [6, 17]: 49.5%
- Emax [6, 18]: 65.8%
- Emax [6, 19]: 40.2%
- Emax [6, 20]: 37.4%
- pKi [7]: < 5.00
- pKi [8]: < 5.00
- pKi [9]: < 5.00
